SMILES strings stand for the structures.

Assay [1] deals with T1, AfGna1 (Aspergillus fumigatus, UniProt Q4WCU5).
T1 construct: gene AFUA_6G02460; GST fusion (pGEX6P-1) from E. coli BL21(DE3) pLysS, GST tag cleaved with PreScission; obligate homodimer; 164-165 residues modelled; biotinylated for BLI
T1 sequence (Q4WCU5 1-190): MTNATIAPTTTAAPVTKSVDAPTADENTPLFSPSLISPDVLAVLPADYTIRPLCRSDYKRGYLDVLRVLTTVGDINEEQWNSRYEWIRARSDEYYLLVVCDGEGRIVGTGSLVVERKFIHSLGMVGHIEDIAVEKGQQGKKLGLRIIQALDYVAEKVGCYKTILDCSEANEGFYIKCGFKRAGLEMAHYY
Briefly: bio-layer interferometry, biotinylated protein on SSA biosensors. It is filed as binding.

Assay [2] addresses T1, AfGna1. In words: bio-layer interferometry, confirmed by isothermal titration calorimetry. It is filed as binding. Conditions: read-out: equilibrium dissociation constant. In general terms: Biolayer interferometry detects binding as a change in optical thickness at a sensor tip.

On AfGna1 [1], `Nc1cccc(-c2nc[nH]n2)c1Cl` [compound 2, 2-chloro-3-(1,2,4-triazol-3-yl)aniline] had a Kd of 0.8 µM. On the same count and under the same terms, the value for `OCCN(CCO)c1cc(Cl)c(-c2nc[nH]n2)c(Cl)c1` [compound 3, 2,2′-((3,5-dichloro-4-(1,2,4-triazol-3-yl)phenyl)azanediyl)bis(ethan-1-ol)] was 5 µM. Take `Clc1ccccc1-c1nnc[nH]1` [compound 1, fragment hit 1]: the Kd at AfGna1 [2] was found to be 6 µM.

Source of the values: paper PMC7324522, “Targeting a critical step in fungal hexosamine biosynthesis” (The Journal of Biological Chemistry, 2020).
